Source: PMC6273194, “Synthesis and Evaluation of Aminothiazole-Paeonol Derivatives as Potential Anticancer Agents” (Molecules, 2016)
Where two headings read alike, the source gives them in different places.

What was measured:
BALB/3T3 cells [1] = experiment: MTT cell viability assay, embryonic fibroblast BALB/3T3; type: cell-based; conditions: Mus musculus, BALB/3T3 fibroblasts, 48 h
Protocol: (§1) Cell lines, including human gastric adenocarcinoma (AGS), human cervix adenocarcinoma (HeLa), human pancreas adenocarcinoma (PaTu8988t), human colorectal adenocarcinoma (HT-29), human glioblastoma (U87-MG), human lung adenocarcinoma (A549), mouse colon carcinoma (CT26.WT) cells and embryonic fibroblast (BALB/3T3) were purchased from Bioresource Collection and Research Center (BCRC, Taiwan) to evaluate anticancer activity of aminothiazole-paeonol derivatives. Five cell lines were cultured in different media from Gibco (Life Technologies, Grand Island, NY, USA) and Hyclone (GE Healthcare Life Science). Cells were cultured in 90% medium mixed with 10% serum at 37 °C in humidified atmosphere with 5% CO2 and grown in T-75 flask with a feeding cycle of two to three days. The composition and procedures of preparing culture media for different cell lines were followed by instruction manual of suppliers.
(§2) The different cell lines were seeded into 96-well tissue culture plates at a concentration of 5 × 10^3 cells/100 µL/well overnight. Subsequently, the cells were treated with serial concentrations of seven paeonol derivatives. After 48 h of incubation, cell viability of each cell line was determined by MTT colorimetric assay. Briefly, 100 µL of 2 mg/mL MTT reagent (Sigma-Aldrich, St. Louis, MO, USA) was added to each well and incubated for 4 h at 37 °C. Later, the medium was aspirated and 100 µL of dimethyl sulphoxide (DMSO) added to each well; finally, the OD595 of each well was measured by ELISA reader (TECAN, Wien, Austria).

[2] = test system: human gastric adenocarcinoma (AGS) cells; experiment: MTT cell viability assay, AGS; type: cell-based; conditions: 48 h
Protocol: as §1, §2

[3] = test system: human cervix adenocarcinoma (HeLa) cells; experiment: MTT cell viability assay, HeLa; type: cell-based; conditions: 48 h
Protocol: as §1, §2

[4] = test system: human pancreas adenocarcinoma (PaTu8988t) cells; experiment: MTT cell viability assay, PaTu8988t; type: cell-based; conditions: PaTu 8988t, 48 h
Protocol: as §1, §2

[5] = test system: human colorectal adenocarcinoma (HT-29) cells; experiment: MTT cell viability assay, HT-29; type: cell-based; conditions: HT-29, 48 h
Protocol: as §1, §2

[6] = test system: human glioblastoma (U87-MG) cells; experiment: MTT cell viability assay, U87-MG; type: cell-based; conditions: U-87 MG, 48 h
Protocol: as §1, §2

[7] = test system: human lung adenocarcinoma (A549) cells; experiment: MTT cell viability assay, A549; type: cell-based; conditions: A549, 48 h
Protocol: as §1, §2

[8] = test system: mouse colon carcinoma (CT26.WT) cells; experiment: MTT cell viability assay, CT26.WT; type: cell-based; conditions: 48 h
Protocol: as §1, §2

BALB/3T3 cells [9] = conditions: BALB/3T3, 72 h after treatment; ref [25],[26],[27],[28],[29],[30],[31],[32]; cited from earlier work
[10] = test system: human gastric adenocarcinoma (AGS) cells; conditions: 24 h after treatment, ref [25],[26],[27],[28],[29],[30],[31],[32]; cited from earlier work
[11] = test system: human cervix adenocarcinoma (HeLa) cells; conditions: 48 h after treatment, ref [25],[26],[27],[28],[29],[30],[31],[32]; cited from earlier work
[12] = test system: human pancreas adenocarcinoma (PaTu8988t) cells; conditions: 48 h after treatment, ref [25],[26],[27],[28],[29],[30],[31],[32]; cited from earlier work
[13] = test system: human colorectal adenocarcinoma (HT-29) cells; conditions: HT-29, 48 h after treatment; ref [25],[26],[27],[28],[29],[30],[31],[32]; cited from earlier work
[14] = test system: human glioblastoma (U87-MG) cells; conditions: 48 h after treatment, ref [25],[26],[27],[28],[29],[30],[31],[32]; cited from earlier work
[15] = test system: human lung adenocarcinoma (A549) cells; conditions: A549, 48 h after treatment; ref [25],[26],[27],[28],[29],[30],[31],[32]; cited from earlier work
[16] = test system: mouse colon carcinoma (CT26.WT) cells; conditions: 72 h after treatment, ref [25],[26],[27],[28],[29],[30],[31],[32]; cited from earlier work

Compound	IC50 (BALB/3T3 cells [1])	IC50 [2]	IC50 [3]	IC50 [4]	IC50 [5]	IC50 [6]	IC50 [7]	IC50 [8]	IC50 (BALB/3T3 cells [9])	IC50 [10]	IC50 [11]	IC50 [12]	IC50 [13]	IC50 [14]	IC50 [15]	IC50 [16]
COc1ccc(-c2csc(NS(=O)(=O)c3ccc(Br)cc3)n2)c(O)c1 [Compound 13f, 4-Bromo-N-[4-(2-hydroxy-4-methoxyphenyl)thiazol-2-yl]benzenesulfonamide]	> 50 µM	> 50 µM	16.4 µM	22.8 µM	11 µM	> 50 µM	> 50 µM	> 50 µM								
COc1ccc(-c2csc(NS(=O)(=O)c3ccc(F)cc3)n2)c(O)c1 [Compound 13d, 4-Fluoro-N-[4-(2-hydroxy-4-methoxyphenyl)thiazol-2-yl]benzenesulfonamide]	> 50 µM	7.2 µM	13.8 µM	31.4 µM	11.2 µM	> 50 µM	> 50 µM	> 50 µM								
COc1ccc(-c2csc(NS(=O)(=O)c3ccc([N+](=O)[O-])cc3)n2)c(O)c1 [Compound 13g, N-[4-(2-Hydroxy-4-methoxyphenyl)thiazol-2-yl]-4-nitrobenzenesulfonamide]	32.2 µM	> 50 µM	> 50 µM	> 50 µM	47.8 µM	> 50 µM	> 50 µM	30 µM								
COc1ccc(-c2csc(NS(=O)(=O)c3ccc(Cl)cc3)n2)c(O)c1 [Compound 13e, 4-Chloro-N-[4-(2-hydroxy-4-methoxyphenyl)thiazol-2-yl]benzenesulfonamide]	> 50 µM	> 50 µM	> 50 µM	> 50 µM	13.4 µM	> 50 µM	> 50 µM	> 50 µM								
COc1ccc(S(=O)(=O)Nc2nc(-c3ccc(OC)cc3O)cs2)cc1 [Compound 13c, N-[4-(2-Hydroxy-4-methoxyphenyl)thiazol-2-yl]-4-methoxybenzenesulfonamide]	32.7 µM	4 µM	5.8 µM	15.8 µM	4.4 µM	22.5 µM	> 50 µM	10 µM								
COc1ccc(-c2csc(NS(=O)(=O)c3ccc(C)cc3)n2)c(O)c1 [Compound 13b, N-[4-(2-Hydroxy-4-methoxyphenyl)thiazol-2-yl]-4-methylbenzenesulfonamide]	> 50 µM	22 µM	27.4 µM	38.7 µM	14.1 µM	> 50 µM	> 50 µM	> 50 µM								
O=c1[nH]cc(F)c(=O)[nH]1 [Compound 5-FU, 5-fluorouracil, reference compound]	1 µM	43.8 µM	2.2 µM	12.5 µM	7.2 µM	> 50 µM	> 50 µM	9.2 µM	13 µM	79.5 µM	232 nM	11.3 µM	19.3 µM	4.9 µM	10.3 µM	61 µM
COc1ccc(-c2csc(NS(=O)(=O)c3ccccc3)n2)c(O)c1 [Compound 13a, N-[4-(2-Hydroxy-4-methoxyphenyl)thiazol-2-yl]benzenesulfonamide]	> 50 µM	> 50 µM	> 50 µM	31.1 µM	20.7 µM	> 50 µM	> 50 µM	> 50 µM								
